Source: patent US9974782B2, “Phosphodiesterase inhibitors and uses thereof” (THE TRUSTEES OF COLUMBIA UNIVERSITY IN THE CITY OF NEW YORK, priority 2008, dated 2018)
pIC50: −log10 of the molar value. Several values for one entry are separate records, joined by “and”; a condition that tells them apart may be missing. Equal entries are not always repeated.

Assays:
PDE5A1 = PDE5A1 (Homo sapiens, UniProt O76074); assay: PDE assay for compound screening (IMAP TR-FRET kit, FAM-cGMP, fluorescence polarization); format: biochemical; details: 100 nM cGMP substrate; read-out: IC50 for PDE5
Method: Protocol of PDE Assay for Compound Screening
Materials: IMAPTM TR-FRET Screening Express with Progressive Binding Kit from Molecular Devices (R8160); FAM-Cyclic-3′,5′-GMP from Molecular Devices (R7507); PDE5 inhibitors.
Step 1: A dilution series of the inhibitors ranging from 300 pM to 10 μM in 1× PDE Assay Buffer are made. Subsequently, FAM-cGMP is diluted to 200 nM in 1×PDE Assay Buffer. PDE5A1 enzymes are then diluted to 0.125 ng/μl in 1×PDE Assay Buffer.
Step 2: The following components are added to a low binding black plate: a) […] of 200 nM FAM-cGMP (Final concentration will be 100 nM); b) 5 μl of the compounds (Final concentration=30 pM to 1 μM); c) 20 μl of PDE5A1 (0.125 ng/l) (Final amount=2.5 ng/reaction). The components are mixed and incubated at room temp. for 1 hour.
Step 3: A 1× reagent-binding buffer (75% 1× Binding Buffer A and 25% 1× Binding Buffer B) is then prepared followed by a Binding Solution that is prepared by diluting Binding Reagent with 1× reagent-binding Buffer (1:600). 120 μl of Binding Solution is then added to each well and the plate is incubated at room temperature for 1 hour.
Step 4: Fluorescence polarization is measured at excitation of 485 nm and emission of 520 nm in BioTek Synergy™ 2 microplate reader.

[1] = mouse, in vivo, po
Method: Timeline: 24 h-7 days. In the timeline, no fatal effects were observed.
Dosage: • Single dose at 500 mg/kg, i.p. • Single dose at 1000 mg/kg, i.p. • Single dose at 2000 mg/kg, p.o.

APP/PS1 mice = assay: Electrophysiological analysis (BST, LTP) of slices from mice previously treated i.p.; format: in vivo, mouse
Method: To add depth to the analysis of the functional changes that underlie the striking effects of sildenafil on APP/PS1 mice behavioral performance, synaptic function in hippocampi from the same mice was examined. […] The drug was administered either acutely or for 1 course of 3 week treatment. […] This dose yields concentrations of 2.5 μM cGMP in the hippocampus^[…]. […] Radial-arm water-maze (RAWM) was performed for 3 weeks. Then, the animals were sacrificed for electrophysiological recordings. To decide the time of administration of sildenafil in the acute experiments, a series of studies was performed in which the inhibitor was injected i.p. at 5 min before the electric shock or at 5 min before the first acquisition trial with the radial arm water maze. […] Thus, all the behavioral experiments on the acute effects of sildenafil reported in the result section were performed with injection after the training. Animals were sacrificed by cervical dislocation followed by decapitation. Hippocampi were quickly removed. Transverse hippocampal slices (400 μm) were cut and recorded according to standard procedures^[…]. For example, following cutting hippocampal slices were transferred to a recording chamber where they were maintained at 29° C. and perfused with artificial cerebrospinal fluid (ACSF) continuously bubbled with 95% O2 and 5% CO2. […] CA1 fEPSPs were recorded by placing both the stimulating and the recording electrodes in CA1 stratum radiatum. BST was assayed either by plotting the peak amplitude of the fiber volley against the slope of the fEPSP, or by plotting the stimulus voltages against slopes of fEPSP. For LTP experiments, a 15 min baseline was recorded every min at an intensity that evokes a response 35% of the maximum evoked response. […] Responses were recorded for 2 hrs after tetanization and measured as field-excitatory-post-synaptic potential (fEPSP) slope expressed as percentage of baseline. The results were expressed as mean±Standard Error Mean (SEM).

[2] = tested on: APP processing (APP, sAPPα, sAPPβ, CT83, CT99); assay: Western blot of APP full length and fragments in brain; format: in vivo, mouse; parameters: concentration or dose not given beside the values
Excerpt: Aβ originates from APP through a proteolytic process catalyzed by secretases, producing different fragments with characteristic functions^A24. APP is first cleaved by α and β secretases that generate soluble extracellular fragments, named α-APPs and β-APPs, and three forms of carboxyterminal fragments (CTFs): C83 by α-secretase cleavage, C89 and C99 by β-secretase cleavage^A25, A26. CTFs are substrates of γ-secretase generating C-terminal peptides of 57-58 residues (APP intracellular domain, AID) and Aβ fragments from CTFβ^A27. To assess whether the decrease in Aβ levels was related to changes in APP processing [see FIG. 20], western blot analyses on mice brain cortex for full length APP and its fragments was performed.
APP levels were found unchanged also in 7-10 months old transgenic mice (FIGS. 7B-7C). They have been treated with daily injections of sildenafil for 3 weeks at age of 3 months. […] Moreover, a decrease in sAPPβ in transgenic mice treated with sildenafil was observed (FIGS. 7B, 7E) showing a down-regulation of BACE activity. […] Thus, without being bound by theory, the reduction in Aβ levels by sildenafil is due to an action of the inhibitor onto α- and β-secretase activity.
Mice brains were homogenized in buffer (20 mM tris base, 1 mM EDTA, 1 mM EGTA, 250 mM sucrose) containing protease inhibitors. Part of the homogenates was ultracentrifugated at 100,000 g for 1 h and the supernatants were used to analyze the sAPPα and the sAPPβ fragments. The protein concentration in each homogenate was quantified to analyze the equal amounts of protein from each sample. Samples were loaded into the wells of a 4-12% Bis-Tris precast gel, electrophoresed and transferred according to manufacturer's protocol. After Ponceau S staining, membranes were washed and incubated in 5% non-fat milk powder in PBS for 1 h at room temperature. Then, they were incubated overnight at 4° C. with the following primary antibodies, diluted in goat serum 5% in PBS: mouse 22C11 for APP full length detection (1:4000, Sigma); mouse sAPPα and Swedish sAPPβ (1:4000 and 1:1000, IBL), rabbit AbD for CTFs (1:250, Zymed), mouse Tubulin as control (1:20.000, Sigma). After overnight incubation, membranes were washed 3 times in PBS for 30 minutes and incubated with goat anti-mouse or goat-anti-rabbit antibody, diluted in 5% non-fat milk powder in PBS (1:4000 and 1:2000). After 30 minutes washing in PBS, radiographic detection was performed after exposure to ECL (Pierce).

[3] = 3 mg/kg, treated at 3 months, tested at 6-8 months
[4] = 6-8 month-old APP/PS1, 3 mg/Kg i.p. for 3 weeks at 3 months of age
[5] = 6-8 month-old WT, 3 mg/Kg i.p. for 3 weeks at 3 months of age
[6] = treated at 3 months, tested at 6-8 months, APP/PS1
[7] = 3-month-old APP/PS1 treated with sildenafil
[8] = APP/PS1 at 7-10 months, sildenafil for 3 weeks at 3 months

COc1ccc(CNc2c(CO)cnc3c(C4CC4)cc(C#N)cc23)cc1Cl [YF012403, 4-(3-chloro-4-methoxybenzylamino)-8-cyclopropyl-3-(hydroxymethyl)-quinoline-6-carbonitrile]
pIC50 (PDE5A1): 8.92 and 9.57
safe dose in acute toxicity test [1]: up to 2 g/kg

CCCc1nn(C)c2c(=O)[nH]c(-c3cc(S(=O)(=O)N4CCN(C)CC4)ccc3OCC)nc12 [sildenafil, 5-[2-ethoxy-5-(4-methyl-1-piperazinylsulphonyl)phenyl]-1-methyl-3-n-propyl-1,6-dihydro-7H-pyrazolo[4,3-d]pyrimidin-7-one]
minimum time needed for a positive effect on BST (APP/PS1 mice; [3]): 2 weeks
minimum time needed for a positive effect on LTP (APP/PS1 mice; [3]): 2 weeks
BST, fEPSP slope (APP/PS1 mice; [4]): 1.03±0.12 V/sec.
BST, fEPSP slope as % of vehicle-treated APP/PS1 mice (APP/PS1 mice; [4]): ~160%
LTP as % of sildenafil-treated WT mice (APP/PS1 mice; [4]): ~100%
LTP, % of baseline at 120 min (APP/PS1 mice; [4]): 233.81±30.47%
BST, fEPSP slope (APP/PS1 mice; [5]): 1.01±0.12 V/sec.
BST, slope of input-output curve as % of vehicle-treated WT mice (APP/PS1 mice; [5]): ~94%
LTP as % of vehicle-treated mice (APP/PS1 mice; [5]): ~112%
LTP, % of baseline (APP/PS1 mice; [5]): 234.67±17.19%
minimum concentration needed to improve BST (APP/PS1 mice; [6]): 3 mg/kg
minimum concentration needed to improve LTP (APP/PS1 mice; [6]): 3 mg/kg
APP full length, % of control [2, 7]: 125.75±4.44%
CT83, % of control [2, 7]: 74.5±6.73%
CT99, % of control [2, 7]: 95.25±5.66%
sAPPα, % of control [2, 7]: 86.25±5.02%
sAPPβ, % of control [2, 7]: 43.25±3.90%
APP full length, % of control [2, 8]: 107.4±3.88%
CT83, % of control [2, 8]: 82.75±6.78%
CT99, % of control [2, 8]: 87.2±7.63%
sAPPα, % of control [2, 8]: 153.65±11.95%
sAPPβ, % of control [2, 8]: 25.6±2.83%
